The values that follow come from patent US7060726B2, “Antibacterial agent” (Takasago International Corporation, priority 2001, dated 2006).

Holding throughout (type): cell-based
Test [1] relates to Malassezia furfur IFO 0656. Kind of test: MIC, agar medium dilution method (Mueller Hinton medium). The conditions noted are these: (e) Malassezia furfur, 37° C., 72 hours. The method, then: (§1) Test for Antibacterial Ability (Measurement of Minimum Inhibitory Concentration (MIC) Using an Agar Medium Dilution Method) The samples were dissolved in ethanol to prepare a serial twofold dilution stage and 100 μL of each was added to 10 mL of a sterilized agar medium, which was then stirred sufficiently, then transferred to a 9-cm-diameter Petri dish and solidified at ambient temperature. 5 μL of a diluted test bacteria solution was implanted in the Petri dish and cultured at 37° C. for 72 hours. After the culturing was finished, the growth state of the medium in this Petri dish was compared with that in a Petri dish (blank) containing no sample and the concentration of the sample in which the growth of bacteria was not seen was defined as minimum inhibitory concentration (MIC). (e) Malassezia furfur IFO 0656 (g) Corynebacterium minutissimum IFO 15361 • Mueller Hinton medium (Difco) in these cases Sample

In test [2] the test system is Bacteriodes fragilis GAI 5560. Kind of test: MIC, agar medium dilution method (Trypticase Soy Agar). The conditions noted are these: (c) Bacteriodes fragilis, 37° C., 72 hours. How it is done:
as §1, with “(c) Bacteriodes fragilis GAI 5560” for “(e) Malassezia furfur IFO 0656 (g) Corynebacterium minutissimum IFO 15361”, “Trypticase Soy Agar (BBL)” for “Mueller Hinton medium (Difco)”, “cases” for “cases Sample”

The test system of test [3] is Propionibacterium acnes ATCC 6919. Described as above. The note with it: (b) Propionibacterium acnes ATCC 6919, 37° C., 72 hours. How it is done:
as §1, with “(b) Propionibacterium acnes ATCC 6919 (c) Bacteriodes fragilis GAI 5560” for “(e) Malassezia furfur IFO 0656 (g) Corynebacterium minutissimum IFO 15361”, “Trypticase Soy Agar (BBL)” for “Mueller Hinton medium (Difco)”, “cases” for “cases Sample”

Test [4] deals with Corynebacterium minutissimum IFO 15361. As to the kind of experiment: MIC, agar medium dilution method (Mueller Hinton medium). The note with it: (g) Corynebacterium minutissimum, 37° C., 72 hours. The method, then:
as §1, with “(MIC).” for “(MIC). (e) Malassezia furfur IFO 0656”

Test [5] has as its system Corynebacterium xerosis JCM 1324. Described as above. The note with it: (d) Corynebacterium xerosis, 37° C., 72 hours. How it is done:
as §1, with “(d) Corynebacterium xerosis JCM 1324” for “(e) Malassezia furfur IFO 0656”

The subject of test [6] is Staphylococcus epidermides JCM 2414. The description is as above. The conditions noted are these: (f) Staphylococcus epidermides, 37° C., 72 hours. The method, then: as §1, with “(f) Staphylococcus epidermides JCM 2414” for “(e) Malassezia furfur IFO 0656”
Test [7] relates to Bacillus subtilis PCI 219 IFO 3134. Kind of test: MIC, agar medium dilution method (Mueller Hinton medium), qualification test method 1. The conditions noted are these: method 1, agar, 37° C., 72 hours. The method, then: as §1, with “Method) Measurement of Minimum Inhibitory Concentration (MIC) Using an Agar Medium Dilution Method” for “Method)”, “samples shown below” for “samples”, “medium (Mueller Hinton medium (Difco)),” for “medium,”, “(MIC).” for “(MIC). (e) Malassezia furfur IFO 0656 (g) Corynebacterium minutissimum IFO 15361 • Mueller Hinton medium (Difco) in these cases Sample”

Test [8] relates to Staphylococcus aureus ATCC 6538. The test is described as above. The note with it: method 1, agar, 37° C., 72 hours. The method, then: as §1, with “Method) Measurement of Minimum Inhibitory Concentration (MIC) Using an Agar Medium Dilution Method” for “Method)”, “samples shown below” for “samples”, “medium (Mueller Hinton medium (Difco)),” for “medium,”, “(MIC).” for “(MIC). (e) Malassezia furfur IFO 0656 (g) Corynebacterium minutissimum IFO 15361 • Mueller Hinton medium (Difco) in these cases Sample”

The subject of test [9] is Staphylococcus aureus 209P IAM 12082. The test is described as above. The note with it: method 1, agar, 37° C., 72 hours. How it is done: as §1, with “Method) Measurement of Minimum Inhibitory Concentration (MIC) Using an Agar Medium Dilution Method” for “Method)”, “samples shown below” for “samples”, “medium (Mueller Hinton medium (Difco)),” for “medium,”, “(MIC).” for “(MIC). (e) Malassezia furfur IFO 0656 (g) Corynebacterium minutissimum IFO 15361 • Mueller Hinton medium (Difco) in these cases Sample”

In test [10] the test system is Prevotella intermedia JCM 6322. As to the kind of experiment: MIC, agar medium dilution method (Trypticase Soy Agar). The note with it: (e) Prevotella intermedia, 37° C., 72 hours. How it is done: (§2) Test for Antibacterial Ability (Measurement of Minimum Inhibitory Concentration (MIC) Using an Agar Medium Dilution Method)
(§3) The samples shown below were dissolved in ethanol to prepare a serial twofold dilution stage and 100 μL of each was added to 10 mL of a sterilized agar medium (Trypticase Soy Agar (BBL)), which was then stirred sufficiently, then transferred to a 9-cm-diameter Petri dish and solidified at ambient temperature. 5 μL of a diluted test bacteria (shown below) solution was implanted in the Petri dish and cultured at 37° C. for 72 hours. After the culturing was finished, the growth state of the medium in this Petri dish was compared with that in a Petri dish (blank) containing no sample and the concentration of the sample in which the growth of bacteria was not seen was defined as MIC.

The test system of test [11] is Porphyromonas gingivalis JCM 8525. Described as above. The conditions noted are these: (f) Porphyromonas gingivalis, 37° C., 72 hours. The method, then:
as §2, §3

In test [12] the test system is Actinomyces naeslundii JCM 8350. The test is described as above. The note with it: (b) Actinomyces naeslundii, 37° C., 72 hours. The method, then: as §2, §3
Test [13] concerns Streptococcus mutans JCM 5175. Described as above. The conditions noted are these: (a) Streptococcus mutans, 37° C., 72 hours. The method, then:
as §2, §3

Test [14] has as its system Fusobacterium nuclestum JCM 6328. The description is as above. The note with it: (d) Fusobacterium nuclestum, 37° C., 72 hours. The method, then:
as §2, §3

Test [15] deals with Actionmyces viscosus JCM 8352. The description is as above. The conditions noted are these: (c) Actionmyces viscosus, 37° C., 72 hours. The method, then: as §2, §3
Test [16] concerns Propionibacterium acnes JCM 6473. Described as above. The conditions noted are these: (a) Propionibacterium acnes JCM 6473, 37° C., 72 hours. The method, then:
as §1, with “(a) Propionibacterium acnes JCM 6473 (c) Bacteriodes fragilis GAI 5560” for “(e) Malassezia furfur IFO 0656 (g) Corynebacterium minutissimum IFO 15361”, “Trypticase Soy Agar (BBL)” for “Mueller Hinton medium (Difco)”, “cases” for “cases Sample”

The subject of test [17] is Bacillus subtilis PCI 219. As to the kind of experiment: MIC, agar medium dilution method. The note with it: 37° C., 72 hours. How it is done:
as §1, with “(MIC).” for “(MIC). (e) Malassezia furfur IFO 0656 (g) Corynebacterium minutissimum IFO 15361 • Mueller Hinton medium (Difco) in these cases Sample”

The subject of a further test is Staphylococcus aureus. As to the kind of experiment: Conclusion from the measurement of MBC (liquid medium dilution method). The conditions noted are these: from the results of the measurement of MBC (Table 4). How it is done: (§4) Measurements of MIC and Minimum Bactericidal Concentration (MBC) by Using a Liquid Medium Dilution Method
(§5) The serial twofold dilution solution of the sample is prepared in the same manner as in the agar medium dilution method. 30 μL of the sample solution having each concentration is added to 3 mL of a liquid medium (NYG medium), to which is further added 60 μL of a test bacteria solution and the medium is cultured at 30° C. for 48 hours.
(§6) A change of the turbidity of the medium is measured using a wavelength of 660 nm to find MIC. The media 60 μL each are taken out from a test tube in which no growth of the bacteria is found and implanted in 3 mL of a new medium and cultured for 48 hours. The minimum concentration at which no growth of the bacteria was observed is defined MBC.

The test system of test [18] is Staphylococcus aureus IAM12082. Kind of test: MIC and MBC, liquid medium dilution method (NYG medium), qualification method 2. The note with it: method 2, liquid medium. The method, then: as §4, §5, §6
Test [19] relates to Staphylococcus aureus ATCC6538. The description is as above. The conditions noted are these: method 2, liquid medium. The method, then:
as §4, §5, §6

As to `CCCCOC(=O)c1ccc(O)cc1` [Sample C-2, Butylparabene], the “Minimum inhibitory concentration (MIC)” value in [1] turned out to be 100 ppm; in test [2], 50 ppm; in [3], 100 ppm; in test [4], 200 ppm; in test [5] it was 50 ppm; in test [6] it was 200 ppm. Moreover, the “Minimum inhibitory concentration (MIC)” value came out at 100 ppm in test [16] and 200 ppm in [17]. The MIC in test [7] is listed as 200 ppm; in test [8] it was 200 ppm; in test [9] it was 100 ppm; in [10], 100 ppm; in test [11], 50 ppm; in test [12], 100 ppm. Moreover, the MIC in test [13] is on record as 200 ppm; in [14], 100 ppm; in test [15], 100 ppm.
As to `Oc1cc(Cl)ccc1Oc1ccc(Cl)cc1Cl` [Sample C-1, Trichlosane], in the test on Staphylococcus aureus, the “bactericidal or bacteriostatic action” value is “strong bactericidal activity”. For the same molecule, the MIC in test [10] was 3.1 ppm; in test [11], 3.1 ppm; in test [12], 3.1 ppm; in test [13], 6.3 ppm; in test [14], 3.1 ppm; in [15] it was 3.1 ppm. In addition, the MIC came to 0.244 ppm in test [18] (30° C., 48 hours) and 0.977 ppm in test [19] (30° C., 48 hours). Further, the MBC in test [18] worked out at 0.977 ppm; in test [19], 1.95 ppm.
